EC50 data for 22 molecules are collected here from patent publication US20200138827A1, “SMALL MOLECULE MODULATORS OF HUMAN STING” (Curadev Pharma Limited, priority 2017, published 2020).

Each structure is given as a SMILES string.

What is called EC50 is the concentration that produces a half-maximal response.

For this assay, the target named is T1, WT/R232 STING protein (Homo sapiens, UniProt Q86WV6, H232R).
T1 construct: host or cells: HEK293T
T1 sequence (Q86WV6 whole entry H232R): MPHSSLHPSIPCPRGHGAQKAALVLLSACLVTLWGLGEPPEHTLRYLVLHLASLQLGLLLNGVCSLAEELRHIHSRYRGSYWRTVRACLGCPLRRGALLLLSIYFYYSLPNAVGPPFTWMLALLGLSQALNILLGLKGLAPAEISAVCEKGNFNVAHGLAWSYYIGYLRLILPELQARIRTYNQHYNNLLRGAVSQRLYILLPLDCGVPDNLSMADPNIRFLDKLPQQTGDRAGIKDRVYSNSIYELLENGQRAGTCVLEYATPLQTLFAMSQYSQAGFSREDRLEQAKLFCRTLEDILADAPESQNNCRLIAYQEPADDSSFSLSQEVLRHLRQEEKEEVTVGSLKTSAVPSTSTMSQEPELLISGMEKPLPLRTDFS
Description: Luciferase reporter assay in HEK293T-hSTING-Luciferase cells, WT/R232. The conditions noted are these: 20 hr stimulation, read-out: R232 Activity (EC50 range). Type of assay: cell-based. A digest of the protocol:
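Clonal HEK293T cells stably expressing human STING R232 plus an ISRE/ISG54-driven luciferase reporter, 5×10^5 per well, stimulated with compounds for 20 h. Secreted luciferase in supernatant measured by luminescence; […].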
A general note: Reporter assays use an easily measured gene product as a stand-in for the process of interest.
Regarding `CC1Sc2ccc(C(=O)NCc3cnccn3)cc2N(Cc2cc(F)cc(F)c2)C1=O` (stereo not shown) [Example 168, 4-(3,5-difluorobenzyl)-2-methyl-3-oxo-N-(pyrazin-2-ylmethyl)-3,4-dihydro-2H-benzo [b][1,4]thiazine-6-carboxamide], the EC50 is > 10 µM.

Turning to `CC1Sc2ccc(C(=O)NCc3cnn(C)c3)cc2N(Cc2cc(F)cc(F)c2)C1=O` (stereo not shown) [Example 169, 4-(3,5-difluorobenzyl)-2-methyl-N-((1-methyl-1H-pyrazol-4-yl)methyl)-3-oxo-3,4-dihydro-2H-benzo[b][1,4] thiazine-6-carboxamide], the EC50 was > 10 µM.

As for `CS(=O)(=O)NCCC1Sc2ccc(C(=O)NCc3c(F)cc(F)cc3F)cc2N(Cc2cc(F)cc(F)c2)C1=O` (stereo not shown) [Example 170, 4-(3,5-difluorobenzyl)-2-(2-(methyl-sulfonamido)ethyl)-3-oxo-N-(2,4,6-trifluorobenzyl)-3,4-dihydro-2H-benzo[b] [1,4]thiazine-6-carboxamide], the EC50 was > 10 µM.

Regarding `COc1ccc(CCNC(=O)c2ccc3c(c2)N(Cc2ccccc2)C(=O)CS3)cc1OC` [Example 171, 4-benzyl-N-(3,4-dimethoxy-phenethyl)-3-oxo-3,4-dihydro-2H-benzo[b][1,4] thiazine-6-carboxamide], the EC50 is > 10 µM.

Take `CC1Sc2ccc(C(=O)NCc3ccn(C)n3)cc2N(Cc2c(F)cccc2Cl)C1=O` (stereo not shown) [Example 172, 4-(2-chloro-6-fluorobenzyl)-2-methyl-N-((1-methyl-1H-pyrazol-3-yl)methyl)-3-oxo-3,4-dihydro-2H-benzo[b] [1,4]thiazine-6-carboxamide]: the half-maximal effective concentration (EC50) is > 10 µM.

As to `Cc1cnc(CNC(=O)c2ccc3c(c2)N(Cc2cnn(C)c2)C(=O)C(C)S3)o1` (stereo not shown) [Example 173, 2-methyl-4-((1-methyl-1H-pyrazol-4-yl)methyl)-N-((5-methyloxazol-2-yl)methyl)-3-oxo-3,4-dihydro-2H-benzo[b][1,4] thiazine-6-carboxamide], the EC50 is > 10 µM.

In the case of `CC1Sc2ccc(C(=O)NCCc3c(F)cc(F)cc3F)nc2N(Cc2cc(F)cc(F)c2)C1=O` (stereo not shown) [Example 174, 4-(3,5-difluorobenzyl)-2-methyl-3-oxo-N-(2,4,6-trifluoro-phenethyl)-3,4-dihydro-2H-pyrido[3,2-b][1,4]thiazine-6-carboxamide], the EC50 is > 10 µM.

On to `O=C(O)CC1Sc2ccc(C(=O)NCc3ccco3)cc2N(Cc2ccccc2F)C1=O` (stereo not shown) [Example 175, 2-(4-(2-fluorobenzyl)-6-((furan-2-ylmethyl)carbamoyl)-3-oxo-3,4-dihydro-2H-benzo[b][1,4]thiazin-2-yl)acetic acid], for which the half-maximal effective concentration (EC50) was > 10 µM.

For `NC(=O)CC1Sc2ccc(C(=O)NCc3ccc(F)cc3F)cc2N(Cc2cc(F)cc(F)c2)C1=O` (stereo not shown) [Example 176, 2-(2-amino-2-oxoethyl)-N-(2,4-difluorobenzyl)-4-(3,5-difluorobenzyl)-3-oxo-3,4-dihydro-2H-benzo[b] [1,4]thiazine-6-carboxamide], the concentration giving a half-maximal response (EC50) was > 10 µM.

As to `O=C(NCc1ccco1)c1cnc2c(c1)N(Cc1c(F)cccc1Cl)C(=O)CS2` [Example 177, 1-(2-Chloro-6-fluorobenzyl)-N-(furan-2-ylmethyl)-2-oxo-2,3-dihydro-1H-pyrido[2,3-b-1,4]thiazine-7-carboxamide], the concentration for a half-maximal effect (EC50) is > 10 µM.

Consider `O=C(NCC1CCCCC1)c1cnc2c(c1)N(Cc1c(F)cccc1Cl)C(=O)CS2` [Example 179, 1-(2-chloro-6-fluorobenzyl)-N-(cyclohexyl-methyl)-2-oxo-2,3-dihydro-1H-pyrido[2,3-b-1,4]thiazine-7-carboxamide], for which the concentration for a half-maximal effect (EC50) was > 10 µM.

Regarding `O=C(NCc1ccco1)c1cnc2c(c1)N(Cc1ccccc1)C(=O)CS2` [Example 180, 1-benzyl-N-(furan-2-ylmethyl)-2-oxo-2,3-dihydro-1H-pyrido[2,3-b-1,4]thiazine-7-carboxamide], the EC50 is > 10 µM.

With `O=C(NCc1ccco1)c1cc2c(cn1)SCC(=O)N2Cc1c(F)cccc1Cl` [Example 182, 1-(2-chloro-6-fluorobenzyl)-N-(furan-2-ylmethyl)-2-oxo-2,3-dihydro-1H-pyrido[3,4-b-1,4]thiazine-7-carboxamide], the 50% effective concentration (EC50) was > 10 µM.

Consider `Cc1cccc(CNC(=O)c2ccc3c(n2)N(Cc2c(F)cccc2Cl)C(=O)C(C)S3)c1` (stereo not shown) [Example 184, 4-(2-chloro-6-fluorobenzyl)-2-methyl-N-(3-methylbenzyl)-3-oxo-3,4-dihydro-2H-pyrido[3,2-b-1,4]thiazine-6-carboxamide], for which the EC50 was > 10 µM.

`CC1Sc2ccc(C(=O)NCc3c(F)cc(F)cc3F)nc2N(Cc2cc(F)cc(F)c2)C1=O` (stereo not shown) [Example 185, 4-(3,5-difluorobenzyl)-2-methyl-3-oxo-N-(2,4,6-trifluorobenzyl)-3,4-dihydro-2H-pyrido[3,2-b-1,4]thiazine-6-carboxamide]: the 50% effective concentration (EC50) was 1 to 10 µM.

As to `CC1Sc2ccc(C(=O)NCc3c(F)cc(F)cc3F)nc2N(Cc2c(F)cccc2Cl)C1=O` (stereo not shown) [Example 186, 4-(2-chloro-6-fluorobenzyl)-2-methyl-3-oxo-N-(2,4,6-trifluorobenzyl)-3,4-dihydro-2H-pyrido[3,2-b-1,4]thiazine-6-carboxamide], the EC50 fell in the range of 1 to 10 µM.

`Cc1ccc(CNC(=O)c2ccc3c(n2)N(C(C)c2cc(F)cc(F)c2)C(=O)C(C)S3)o1` (stereo not shown) [Example 204, 4-(1-(3,5-difluorophenyl)ethyl)-2-methyl-N-((5-methylfuran-2-yl)methyl)-3-oxo-3,4-dihydro-2H-pyrido[3,2-b] [1,4] thiazine-6-carboxamide]: the 50% effective concentration (EC50) lay in the range of 1 to 10 µM.

As to `Cc1ccc(CNC(=O)c2ccc3c(n2)N(Cc2cccc(C(N)=O)c2)C(=O)C(C)S3)o1` (stereo not shown) [Example 205, 4-(3-carbamoyl-benzyl)-2-methyl-N-((5-methylfuran-2-yl)methyl)-3-oxo-3,4-dihydro-2H-pyrido[3,2-b][1,4]thiazine-6-carboxamide], the EC50 lay in the range of 1 to 10 µM.

With `COc1cc(CN2C(=O)C(C)Sc3ncc(C(=O)NCc4c(F)cc(F)cc4F)cc32)ccn1` (stereo not shown) [Example 206, 1-((2-methoxypyridin-4-yl)methyl)-3-methyl-2-oxo-N-(2,4,6-trifluorobenzyl)-2,3-dihydro-1H-pyrido[2,3-b][1,4] thiazine-7-carboxamide], the 50% effective concentration (EC50) fell in the range of 1 to 10 µM.

On to `Cc1ccc(CNC(=O)c2cnc3c(c2)N(Cc2c(F)cccc2Cl)C(=O)CS3)o1` [Example 207, 1-(2-chloro-6-fluorobenzyl)-N-((5-methylfuran-2-yl)methyl)-2-oxo-2,3-dihydro-1H-pyrido [2,3-b][1,4] thiazine-7-carboxamide], for which the EC50 was 1 to 10 µM.

Consider `CC1Sc2ncc(C(=O)NCc3cc4ccccc4o3)cc2N(Cc2cc(F)cc(F)c2)C1=O` (stereo not shown) [Example 208, N-(benzofuran-2-ylmethyl)-1-(3,5-difluorobenzyl)-3-methyl-2-oxo-2,3-dihydro-1H-pyrido[2,3-b][1,4] thiazine-7-carboxamide], for which the EC50 is > 10 µM.

As for `Cc1ccc(CNC(=O)c2cnc3c(c2)N(Cc2cc(F)cc(F)c2)C(=O)C(C)(CO)S3)o1` (stereo not shown) [Example 209, 1-(3,5-difluorobenzyl)-3-(hydroxymethyl)-3-methyl-N-((5-methylfuran-2-yl)methyl)-2-oxo-2,3-dihydro-1H-pyrido [2,3-b] [1,4]thiazine-7-carboxamide], the EC50 was > 10 µM.
